From PubChem BioAssay (NCI)
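Cells were grown in 96-well plates and exposed to each compound for 48 hours at five concentrations; endpoints were interpolated linearly between bracketing concentrations, or set to the highest concentration if not reached. Abbreviation: GI50, concentration required for 50% inhibition of growth. TGI denotes the concentration required for complete inhibition of growth.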

Legend:
Experiment in all cases: growth of human tumour cells (NCI), 48 h
SK-MEL-28 melanoma = tested on: SK-MEL-28 melanoma
SF-539 CNS = tested on: SF-539 CNS
SK-MEL-5 melanoma = tested on: SK-MEL-5 melanoma
HCT-15 colon = tested on: HCT-15 colon
K-562 leukemia = tested on: K-562 leukemia
SNB-75 CNS = tested on: SNB-75 CNS
CAKI-1 renal = tested on: CAKI-1 renal
UACC-62 melanoma = tested on: UACC-62 melanoma
LOX IMVI melanoma = tested on: LOX IMVI melanoma
PC-3 prostate = tested on: PC-3 prostate

Row | Compound | TGI (SK-MEL-28 melanoma) [µM] | TGI (SF-539 CNS) [µM] | TGI (SK-MEL-5 melanoma) [µM] | TGI (HCT-15 colon) [µM] | TGI (K-562 leukemia) [µM] | GI50 (SK-MEL-28 melanoma) [µM] | GI50 (SF-539 CNS) [µM] | GI50 (SK-MEL-5 melanoma) [µM] | GI50 (SNB-75 CNS) [µM] | TGI (SNB-75 CNS) [µM] | GI50 (HCT-15 colon) [µM] | GI50 (K-562 leukemia) [µM] | GI50 (CAKI-1 renal) [µM] | TGI (CAKI-1 renal) [µM] | GI50 (UACC-62 melanoma) [µM] | TGI (UACC-62 melanoma) [µM] | TGI (LOX IMVI melanoma) [µM] | GI50 (LOX IMVI melanoma) [µM] | GI50 (PC-3 prostate) [µM] | TGI (PC-3 prostate) [µM]
1 | O=C(O)Cc1cc(=O)[nH]c2c1/C(=N/O)CCC2 | > 100 | > 100 | > 100 | > 100 | > 100 | – | – | – | – | – | – | – | – | – | – | – | – | – | – | –
2 | CC(=O)[CH-]C(=O)c1ccccc1.CC(=O)[CH-]C(=O)c1ccccc1.CC(C)CCCC(C)[C@H]1CCC2[C@@H]3CC=C4C[C@@H]([O-])CC[C@]4(C)C3CC[C@@]21C.CC(C)CCCC(C)[C@H]1CCC2[C@@H]3CC=C4C[C@@H]([O-])CC[C@]4(C)C3CC[C@@]21C.[Ti+4] (stereo partly specified) | > 100 | > 100 | > 100 | > 100 | > 100 | > 100 | > 100 | > 100 | > 100 | > 100 | > 100 | > 100 | > 100 | > 100 | > 100 | > 100 | – | – | – | –
3 | CC1=C[C@]2(O)C(=O)[C@H](C)C[C@H]3[C@@H](CC[C@@](C)(O)/C=C\2C1=O)C3(C)C | 33.1 | 46.8 | 50.8 | 32.4 | > 100 | – | – | – | – | > 100 | – | – | – | 55.4 | – | 30.6 | 34.6 | – | – | –
4 | O=C1Cc2c([nH]c3ccccc23)-c2ccccc2N1 | > 100 | 55.2 | > 100 | > 100 | > 100 | – | – | – | – | > 100 | – | – | – | > 100 | – | – | 37.7 | – | – | –
5 | CC1=C(C(=O)Nc2cc(=O)n(C)c(=O)n2C)C(c2cccc([N+](=O)[O-])c2)C(C(=O)Nc2cc(=O)n(C)c(=O)n2C)=C(C)N1 | > 100 | 61.7 | > 100 | – | > 100 | – | – | – | – | 99.5 | – | – | – | > 100 | – | – | > 100 | – | – | –
6 | C#CCOCn1cnc2c(Sc3c([N+](=O)[O-])ncn3C)ncnc21 | > 100 | – | > 100 | > 100 | > 100 | – | – | – | – | 72.7 | – | – | – | > 100 | – | > 100 | > 100 | – | – | –
7 | N#CC1=C(N)Oc2c(ccc3ccccc23)C1c1ccccc1 (stereo unspecified) | 20.5 | 0.158 | 0.451 | 10.7 | 22.6 | 0.944 | 0.0311 | 0.0346 | – | – | 0.0478 | 0.0322 | 0.0283 | 12.6 | 0.0567 | 16 | 3.25 | 0.0575 | 0.0454 | 16.8
8 | CCC(=O)Nc1ccccc1C#C/C=C\C#Cc1ccccc1SC | > 100 | > 100 | 17.4 | > 100 | > 100 | 8.75 | 14.2 | 3.91 | 4.76 | > 100 | 4.27 | 6.37 | 5.18 | > 100 | 4.04 | > 100 | > 100 | 5.47 | – | –
9 | CCOC(=O)Cc1ccc2c(c1O)C(=O)c1c(ccc(CC(=O)OCC)c1O)C2=O | > 100 | > 100 | > 100 | – | > 100 | – | – | – | – | > 100 | – | – | – | – | – | > 100 | > 100 | – | – | –
10 | O=C1[C@H]2ON(c3ccccc3)C(c3ccccc3)[C@H]2C(=O)N1c1ccc(Cc2ccc(N3C(=O)[C@@H]4ON(c5ccccc5)C(c5ccccc5)[C@@H]4C3=O)cc2)cc1 (stereo partly specified) | > 100 | > 100 | > 100 | > 100 | > 100 | – | – | – | – | > 100 | – | – | – | > 100 | – | > 100 | > 100 | – | – | –
11 | O=C1O/C(=C\c2ccccc2)N(c2ccccc2)C1=O | > 100 | – | > 100 | > 100 | > 100 | – | – | – | – | > 100 | – | – | – | > 100 | – | > 100 | > 100 | – | – | > 100
12 | O=C(c1ccccc1)c1c(-c2ccccc2)sc2nc3ccccc3nc12 | > 100 | > 100 | > 100 | > 100 | > 100 | – | – | – | – | 85.6 | – | – | – | > 100 | – | > 100 | – | – | – | –
13 | CC(=O)OC1CCn2nnc(CO)c21 (stereo unspecified) | > 100 | > 100 | > 100 | > 100 | > 100 | – | – | – | – | > 100 | – | – | – | > 100 | – | > 100 | – | – | – | –
14 | C[C@]12CCC(=O)C(O)=C1CC[C@@H]1C2CC[C@]2(C)NC(=O)CCC12 (stereo partly specified) | > 100 | > 100 | > 100 | > 100 | > 100 | – | – | – | – | > 100 | – | – | – | > 100 | – | > 100 | > 100 | – | – | –
15 | c1ccc2c(NCCCCCCNc3c4ccccc4nc4ccccc34)c3ccccc3nc2c1 | – | 0.835 | 2.86 | 16.7 | > 100 | – | – | – | – | 2.29 | – | – | – | 7.87 | – | 2.08 | 1.45 | – | – | –
16 | CC(=O)c1cccc(C)c1C(=O)O | > 100 | – | > 100 | > 100 | > 100 | – | – | – | – | > 100 | – | – | – | > 100 | – | > 100 | > 100 | – | – | –
17 | Cc1occc1C(=S)Nc1ccc(Cl)c(C(=O)OC(C(C)C)C(C)C)c1 | 29.8 | 35 | 32 | 33.7 | – | – | – | – | – | – | – | – | – | 35.4 | – | 25.7 | 26.3 | – | – | 25.4
18 | O=C1C=CC(=O)C12CCc1ccccc12 | > 100 | > 100 | > 100 | > 100 | > 85.1 | – | – | – | – | > 100 | – | – | – | > 31.6 | – | > 100 | > 100 | – | – | –
19 | CC(=O)CC(N)=O | > 100 | > 100 | > 100 | > 100 | > 100 | – | – | – | – | > 100 | – | – | – | > 100 | – | > 100 | – | – | – | –
20 | Cc1cccc(C)c1CO | – | > 100 | – | > 100 | > 100 | – | – | – | – | > 100 | – | – | – | > 100 | – | > 100 | > 100 | – | – | –
21 | COc1ccc(NC(=O)CC/C(CC(=O)C(C)(C)C)=N\NC(=O)C(=O)NN)cc1 | > 100 | > 100 | > 100 | > 100 | > 100 | – | – | – | – | > 100 | – | – | – | > 100 | – | > 100 | > 100 | – | – | –
